Measured values published in US9018395B2, “Pyrazolopyridine and pyrazolopyrimidine derivatives as melanocortin-4 receptor modulators” (Université de Montréal, priority 2011, dated 2015).
pIC50: −log10 of the molar value.

Each molecule was assayed against T1, wild-type human melanocortin 4 receptor (WT-hMC4R) (Homo sapiens, UniProt P32245) (assay: Cyclic AMP assay (HTRF), antagonist competition against NDP-α-MSH). Conditions: HEK293T cells expressing double-tagged WT-hMC4R; cAMP accumulation; 1 hour compound then 4 nM NDP-α-MSH 30 min.
T1 construct: expressed in transfected cells; cDNA from UMR cDNA resource center
T1 sequence (P32245 whole entry): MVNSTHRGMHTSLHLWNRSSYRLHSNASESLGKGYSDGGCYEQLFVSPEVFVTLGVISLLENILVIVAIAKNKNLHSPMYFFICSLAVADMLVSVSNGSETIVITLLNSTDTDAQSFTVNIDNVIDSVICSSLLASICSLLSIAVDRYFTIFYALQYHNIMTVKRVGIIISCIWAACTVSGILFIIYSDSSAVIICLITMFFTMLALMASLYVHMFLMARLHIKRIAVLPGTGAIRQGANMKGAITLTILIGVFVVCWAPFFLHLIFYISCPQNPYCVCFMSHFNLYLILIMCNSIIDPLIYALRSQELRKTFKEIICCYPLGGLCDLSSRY
Format: cell-based
Experimental: Intracellular cyclic 3′-5′ adenosine monophosphate (cAMP) accumulation was measured using a competitive immunoassay based on HTRF (Homogeneous Time-Resolved Fluorescence) technology (cAMP dynamic-2, Cis-Bio).
HEK293T stable cell line expressing double-tagged WT-hMC4R construct were collected and washed in cAMP buffer (1XD-PBS pH 7.4, 0.1% glucose). 40,000 cells/well were then dispensed in 96-well plates in cAMP buffer [1XD-PBS, 1% BSA, 0.1% Glucose, 0.75 mM 3-isobutyl-1methyl-xanthine (IBMX, Sigma)] and incubated either for antagonist competition assay: 1 hour at 37° C. with various concentrations of compound [0.01 nM-10 μM] followed by 30 min incubation at 37° C. with 4 nM of NDP-α-MSH (Sigma) or for agonist assay: 1 hour at 37° C. with various concentrations of compound [0.01 nM-10 μM]. 10,000 cells were transferred in 384-well plates, lysed and incubated with cAMP labeled with the dye d2 and anti-cAMP M-Antibody labeled with Cryptate following the manufacturer's protocol.
Reading of HTRF signal was performed on Artemis TR-FRET plate reader (Cosmo Bio).
All curve fitting was conducted using non-linear regression analyses from PRISM (version 4.0c, GraphPad Inc.) and the determination of Rmax and EC50 or IC50 parameters were obtained from sigmoidal dose-response phase (variable slope) equation.
A cDNA encoding a wild-type human MC4R with a 3 tandem copies of Hemaglutinine (HA) epitote sequence from UMR cDNA resource center was modified using known techniques in the art (e.g., PCR, cloning) to fused in frame at the C-terminal a venus-Yellow Fluorescent Protein (YFP) cDNA.
The resultant cDNA was then subcloned in eukaryotic expression vector, e.g. pcDNA 3.1(+) (Invitrogen).
The double tagged WT-hMC4R was transfected in HEK293T cells with lipofectamine (Invitrogen) following the manufacturer's instructions and permanently transfected clonal cell lines were selected by resistance to the neomycin analog G418.
HEK293T stable cell line expressing wild-type human melanocortin 4 receptor (WT-hMC4R) containing an N-terminal 3xHA epitope tag and an intracellular C-terminal venus-yellow fluorescent protein (v-YFP) were maintained at 37° C. in humidified air containing 5% CO2 in Dulbecoo's modified Eagle's medium (DMEM) supplemented with 10% fetal bovine serum (FBS), 100 U/ml penicillin/streptomycin (DMEM complete/10% FBS). Cells were generally at 70%-80% confluence on the day of assay.
For `CCCCN(CCCC)C(=O)c1ccn2nc(-c3ccc(F)cc3)c(/C=C/CN3CCCCC3)c2c1` [Example 51], the pIC50 was 5.30 to 6.00.
`CC(C)CCN(CCC(C)C)C(=O)c1ccn2nc(-c3ccc(F)cc3)c(/C=C/CN3CCCCC3)c2c1` [Example 52] gave a pIC50 of 6.00 to 6.30.
Molecule `CCCCCN(CCCCC)C(=O)c1ccn2nc(-c3ccc(F)cc3)c(/C=C/CN3CCCCC3)c2c1` [Example 53] has a pIC50 of 5.30 to 6.00.
Work on `CCCCN(CCCC)C(=O)c1ccn2nc(-c3ccccc3)c(CCCN3CCCCC3)c2c1` [Example 54] yielded a pIC50 of 6.00 to 6.30.
For `CC(C)CCN(CCC(C)C)C(=O)c1ccn2nc(-c3ccccc3)c(CCCN3CCCCC3)c2c1` [Example 55], the pIC50 was 5.30 to 6.00.
With `CCCCCN(CCCCC)C(=O)c1ccn2nc(-c3ccccc3)c(CCCN3CCCCC3)c2c1` [Example 56] the pIC50 was 6.00 to 6.30.
In the case of `CCCCN(CCCC)C(=O)c1ccn2nc(-c3ccccc3)c(/C=C/CN3CCCCC3)c2c1` [Example 57], the pIC50 was 5.30 to 6.00.
`CC(C)CCN(CCC(C)C)C(=O)c1ccn2nc(-c3ccccc3)c(/C=C/CN3CCCCC3)c2c1` [Example 58] showed a pIC50 of 6.00 to 6.30.
`CCCCCN(CCCCC)C(=O)c1ccn2nc(-c3ccccc3)c(/C=C/CN3CCCCC3)c2c1` [Example 59] showed a pIC50 of 5.30 to 6.00.
Molecule `CCCCN(CCCC)C(=O)c1ccn2nc(-c3ccc(C)cc3)c(CCCN3CCCCC3)c2c1` [Example 60] has a pIC50 of 6.00 to 6.30.
In the case of `Cc1ccc(-c2nn3ccc(C(=O)N(CCC(C)C)CCC(C)C)cc3c2CCCN2CCCCC2)cc1` [Example 61], the pIC50 was greater than 6.30.
For `CCCCCN(CCCCC)C(=O)c1ccn2nc(-c3ccc(C)cc3)c(CCCN3CCCCC3)c2c1` [Example 62], the pIC50 was 5.30 to 6.00.
`CCCCN(CCCC)C(=O)c1ccn2nc(-c3ccc(C)cc3)c(/C=C/CN3CCCCC3)c2c1` [Example 63] gave a pIC50 of 6.00 to 6.30.
`Cc1ccc(-c2nn3ccc(C(=O)N(CCC(C)C)CCC(C)C)cc3c2/C=C/CN2CCCCC2)cc1` [Example 64] gave a pIC50 greater than 6.30.
`CCCCCN(CCCCC)C(=O)c1ccn2nc(-c3ccc(C)cc3)c(/C=C/CN3CCCCC3)c2c1` [Example 65] gave a pIC50 of 5.30 to 6.00.
With `CCCCN(CCCC)C(=O)c1ccn2nc(-c3cc(OC)c(OC)c(OC)c3)c(CCCN3CCCCC3)c2c1` [Example 66] the pIC50 was 6.00 to 6.30.
Molecule `COc1cc(-c2nn3ccc(C(=O)N(CCC(C)C)CCC(C)C)cc3c2CCCN2CCCCC2)cc(OC)c1OC` [Example 67] has a pIC50 greater than 6.30.
`CCCCCN(CCCCC)C(=O)c1ccn2nc(-c3cc(OC)c(OC)c(OC)c3)c(CCCN3CCCCC3)c2c1` [Example 68] showed a pIC50 of 6.00 to 6.30.
`CCCCN(CCCC)C(=O)c1ccn2nc(-c3cc(OC)c(OC)c(OC)c3)c(/C=C/CN3CCCCC3)c2c1` [Example 69] gave a pIC50 of 6.00 to 6.30.
Work on `COc1cc(-c2nn3ccc(C(=O)N(CCC(C)C)CCC(C)C)cc3c2/C=C/CN2CCCCC2)cc(OC)c1OC` [Example 70] yielded a pIC50 greater than 6.30.
Molecule `CCCCCN(CCCCC)C(=O)c1ccn2nc(-c3cc(OC)c(OC)c(OC)c3)c(/C=C/CN3CCCCC3)c2c1` [Example 71] has a pIC50 of 5.30 to 6.00.
In the case of `CC(C)CCN(CCC(C)C)C(=O)c1ccn2nc(-c3cccc(Cl)c3)c(/C=C/CN3CCCCC3)c2c1` [Example 72, (E)-2-(3-chlorophenyl)-N,N-diisopentyl-3-(3-(piperidin-1-yl)prop-1-en-1-yl)pyrazolo[1,5-a]pyridine-5-carboxamide], the pIC50 was 6.00 to 6.30.
With `CC(C)CCN(CCC(C)C)C(=O)c1ccn2nc(-c3cccc(C(=O)O)c3)c(/C=C/CN3CCCCC3)c2c1` [Example 73] the pIC50 was 5.30 to 6.00.
Work on `CC(C)CCN(CCC(C)C)C(=O)c1ccn2nc(-c3cccc(C(=O)O)c3)c(CCCN3CCCCC3)c2c1` [Example 74] yielded a pIC50 of 5.30 to 6.00.
Molecule `CC(C)CCN(CCC(C)C)C(=O)c1ccn2nc(-c3ccc(C(=O)O)cc3)c(CCCN3CCCCC3)c2c1` [Example 75] has a pIC50 of 5.30 to 6.00.
`CC(C)CCN(CCC(C)C)C(=O)c1ccn2nc(-c3ccc(OCc4ccccc4)cc3)c(/C=C/CN3CCCCC3)c2c1` [Example 76] gave a pIC50 of 5.30 to 6.00.
`CC(C)CCN(CCC(C)C)C(=O)c1ccn2nc(-c3cccc(C(N)=O)c3)c(/C=C/CN3CCCCC3)c2c1` [Example 77] showed a pIC50 greater than 6.30.
`CC(C)CCN(CCC(C)C)C(=O)c1ccn2nc(-c3ccc(O)cc3)c(CCCN3CCCCC3)c2c1` [Example 78] showed a pIC50 greater than 6.30.
With `CCOc1ccc(-c2nn3ccc(C(=O)N(CCC(C)C)CCC(C)C)cc3c2/C=C/CN2CCC(F)(F)CC2)cc1` [Example 79] the pIC50 was 4.82 to 5.30.
For `CCOc1ccc(-c2nn3ccc(C(=O)N(CCC(C)C)CCC(C)C)cc3c2CCCN2CCC(F)(F)CC2)cc1` [Example 80], the pIC50 was 4.82 to 5.30.
Molecule `CCOc1ccc(-c2nn3ccc(C(=O)N(CCC(C)C)CCC(C)C)cc3c2/C=C/CN2CCC(C(F)(F)F)CC2)cc1` [Example 81] has a pIC50 of 4.82 to 5.30.
In the case of `CCOc1ccc(-c2nn3ccc(C(=O)N(CCC(C)C)CCC(C)C)cc3c2CCCN2CCC(C(F)(F)F)CC2)cc1` [Example 82], the pIC50 was 4.82 to 5.30.
With `CC(C)CCN(CCC(C)C)C(=O)c1ccn2nc(-c3cccc(Cl)c3)c(CCCN3CCCCC3)c2c1` [Example 83, 2-(3-Chlorophenyl)-N,N-diisopentyl-3-(3-(piperidin-1-yl)propyl)pyrazolo[1,5-a]pyridine-5-carboxamide] the pIC50 was greater than 6.30.
`COc1cc(OC)cc(-c2nn3ccc(C(=O)N(CCC(C)C)CCC(C)C)cc3c2/C=C/CN2CCCCC2)c1` [Example 84] gave a pIC50 greater than 6.30.
`CCCCN(CCCC)C(=O)c1ccn2nc(-c3cc(OC)cc(OC)c3)c(/C=C/CN3CCCCC3)c2c1` [Example 85] gave a pIC50 of 6.00 to 6.30.
For `COc1cc(OC)cc(-c2nn3ccc(C(=O)N(CCC(C)C)CCC(C)C)cc3c2CCCN2CCCCC2)c1` [Example 86], the pIC50 was greater than 6.30.
In the case of `CCCCN(CCCC)C(=O)c1ccn2nc(-c3cc(OC)cc(OC)c3)c(CCCN3CCCCC3)c2c1` [Example 87], the pIC50 was 5.30 to 6.00.
For `COc1ccc(-c2nn3ccc(C(=O)N(CCC(C)C)CCC(C)C)nc3c2/C=C/CN2CCCCC2)cc1` [Example 88, (E)-N,N-Diisopentyl-2-(4-methoxyphenyl)-3-(3-(piperidin-1-yl)prop-1-en-1-yl)pyrazolo[1,5-a]pyrimidine-5-carboxamide], the pIC50 was 5.30 to 6.00.
Molecule `CC(C)CCN(CCC(C)C)C(=O)c1ccn2nc(-c3cccc(C(N)=O)c3)c(CCCN3CCCCC3)c2c1` [Example 90] has a pIC50 greater than 6.30.
In the case of `CC(C)CCN(CCC(C)C)C(=O)c1ccn2nc(-c3ccc(C(N)=O)cc3)c(/C=C/CN3CCCCC3)c2c1` [Example 91], the pIC50 was 6.00 to 6.30.
Molecule `CC(C)CCN(CCC(C)C)C(=O)c1ccn2nc(-c3cccc(C#N)c3)c(CCCN3CCCCC3)c2c1` [Example 92] has a pIC50 greater than 6.30.
Molecule `CC(C)CCN(CCC(C)C)C(=O)c1ccn2nc(-c3ccc(Br)cc3)c(/C=C/CN3CCOCC3)c2c1` [Example 93] has a pIC50 of 4.82 to 5.30.
For `CC(C)CCN(CCC(C)C)C(=O)c1ccn2nc(-c3cccc(-c4nnn[nH]4)c3)c(CCCN3CCCCC3)c2c1` [Example 94], the pIC50 was 6.00 to 6.30.
In the case of `CC(C)CCN(CCC(C)C)C(=O)c1ccn2nc(-c3ccc(C(N)=O)cc3)c(CCCN3CCCCC3)c2c1` [Example 95], the pIC50 was greater than 6.30.
With `CC(C)CCN(CCC(C)C)C(=O)c1ccn2nc(-c3ccc(C#N)cc3)c(CCCN3CCCCC3)c2c1` [Example 96] the pIC50 was greater than 6.30.
With `COc1ccc(Cl)cc1-c1nn2ccc(C(=O)N(CCC(C)C)CCC(C)C)cc2c1C#CCCN1CCCCC1` [Example 97] the pIC50 was 5.30 to 6.00.
`CC(C)CCN(CCC(C)C)C(=O)c1ccn2nc(-c3ccc(-c4nnn[nH]4)cc3)c(CCCN3CCCCC3)c2c1` [Example 98] was tested, and the pIC50 was 5.30 to 6.00.
For `COc1ccc(-c2nn3ccc(C(=O)N(CCC(C)C)CCC(C)C)nc3c2/C=C/CN2CCCC2)cc1` [Example 99], the pIC50 was 5.30 to 6.00.
In the case of `CCN(CC)C/C=C/c1c(-c2ccc(OC)cc2)nn2ccc(C(=O)N(CCC(C)C)CCC(C)C)nc12` [Example 100], the pIC50 was 4.82 to 5.30.
Molecule `COc1ccc(Cl)cc1-c1nn2ccc(C(=O)N(CCC(C)C)CCC(C)C)cc2c1C#CCN1CCCCC1` [Example 101] has a pIC50 greater than 6.30.
`CC(C)CCN(CCC(C)C)C(=O)c1ccn2nc(-c3ccc(/C(N)=N/O)cc3)c(CCCN3CCCCC3)c2c1` [Example 102] showed a pIC50 greater than 6.30.
For `CC(C)CCN(CCC(C)C)C(=O)c1ccn2nc(-c3ccc(-c4noc(=O)[nH]4)cc3)c(CCCN3CCCCC3)c2c1` [Example 103], the pIC50 was 6.00 to 6.30.
`COc1ccc(-c2nn3ccc(C(=O)N(CCC(C)C)CCC(C)C)nc3c2CCCN2CCCC2)cc1` [Example 104] gave a pIC50 of 4.82 to 5.30.
For `CCN(CC)CCCc1c(-c2ccc(OC)cc2)nn2ccc(C(=O)N(CCC(C)C)CCC(C)C)nc12` [Example 105], the pIC50 was 4.82 to 5.30.
Work on `COc1ccc(-c2nn3ccc(C(=O)N(CCC(C)C)CCC(C)C)cc3c2/C=C/CN2CCCCCC2)cc1` [Example 106] yielded a pIC50 of 5.30 to 6.00.
With `CC(=O)O/N=C(\N)c1ccc(-c2nn3ccc(C(=O)N(CCC(C)C)CCC(C)C)cc3c2CCCN2CCCCC2)cc1` [Example 107] the pIC50 was greater than 6.30.
